Reference: US11149292B2, “Processes for the preparation of (R)-2-(7-(4-cyclopentyl-3-(trifluoromethyl)benzyloxy)-1,2,3,4-tetrahydrocyclopenta[B]indol-3-yl)acetic acid and salts thereof” (Arena Pharmaceuticals, Inc., priority 2010, dated 2021)

Assays:
Male BALB/c mice = assay: Mouse Peripheral Lymphocyte Lowering (PLL) assay; format: in vivo; details: 1.00 mg/kg oral dose; blood at 5 hours post-dose; FIG. 1
Method: Male BALB/c mice (Charles River Laboratories, Wilmington, Mass.) were housed four per cage and maintained in a humidity-controlled (40 to 60%) and temperature-controlled (68 to 72° F.) facility on a 12 h:12 h light/dark cycle (lights on at 6:30 am) with free access to food (Harlan Teklad, Orange, Calif., Rodent Diet 8604) and water. Mice were allowed one week of habituation to the animal facility before testing. PLL Assay: […] Peripheral blood samples were collected at 5 hours post-dose. The mice were anesthetized with isoflurane and blood was collected via cardiac puncture. A complete cell count (CBC), including lymphocyte count, was obtained using a CELL-DYN® 3700 (Abbott Laboratories, Abbott Park, Ill.) instrument. Results are presented in FIG. 1, in which peripheral blood lymphocyte (PBL) count is shown for the 5 hour group.

S1P1 receptor = S1P1 receptor (Homo sapiens (Human), UniProt P21453); assay: HTRF assay for direct cAMP measurement in recombinant CHO-K1 cells stably transfected with S1P1; format: cell-based
Text: CHO-K1 cells were obtained from ATCC® (Manassas, Va.; Catalog #CCL-61). […] The HTRF® assay has been used to determine EC50 values for S1P1 receptor agonists.
HTRF® assay kit was purchased from Cisbio-US, Inc. (Bedford, Mass.; Catalog #62AM4PEC). The HTRF® assay supported by the kit is a competitive immunoassay between endogenous cAMP produced by the CHO-K1 cells and tracer cAMP labeled with the dye d2. The tracer binding is visualized by a monoclonal anti-cAMP antibody labeled with Cryptate. The specific signal (i.e., fluorescence resonance energy transfer, FRET) is inversely proportional to the concentration of unlabeled cAMP in the standard or sample.
The fluorescence ratio (665 nm/620 nm) of the standards (0.17 to 712 nM cAMP) included in the assay was calculated and used to generate a cAMP standard curve according to the kit manufacturer's instructions. The fluorescence ratio of the samples (test compound or compound buffer) was calculated and used to deduce respective cAMP concentrations by reference to the cAMP standard curve.
The HTRF® assay was carried out using a two-step protocol essentially according to the kit manufacturer's instructions, in […] total volume per well in 384-well plate format (ProxiPlates; PerkinElmer, Fremont, Calif.; catalog #6008280). […] The plate was then further incubated at room temperature for 1 hour, after which the assay plate was read. […]

Male Sprague-Dawley rats [1] = assay: Rat Peripheral Lymphocyte Lowering (PLL) assay; format: in vivo; details: 1.00 mg/kg oral dose; blood at 5 hours post-dose; FIG. 2
Method: Male Sprague-Dawley rats (7 weeks of age at start of study) (Charles River Laboratories) were housed two per cage and maintained in a humidity-controlled (40-60%) and temperature-controlled (68-72° F.) facility on a 12 h:12 h light/dark cycle (lights on at 6:30 am) with free access to food (Harlan Teklad, Orange, Calif., Rodent Diet 8604) and water. Rats were allowed one week of habituation to the animal facility before testing. […] Peripheral blood samples were collected at 5 hours post-dose. Blood was collected via indwelling catheter. A complete cell count (CBC), including lymphocyte count, was obtained using a CELL-DYN® 3700 (Abbott Laboratories, Abbott Park, Ill.) instrument. Results are presented in FIG. 2, in which peripheral blood lymphocyte (PBL) count is shown for the 5 hour group.

Female C57BL/6 mice = assay: MOG-induced experimental autoimmune encephalomyelitis (EAE) in mice; format: in vivo, mouse; details: 0.3, 1 and 3 mg/kg orally once a day from day 3 until day 21; FIG. 4
Male Sprague-Dawley rats [2] = assay: Cardiac telemetry in the rat (exemplary bradycardia assay); format: in vivo; details: oral, vehicle PEG400; heart rate measured over a 120 min period
Method: Male Sprague-Dawley rats (250-300 g at time of surgery) were implanted by Charles River Laboratories (Wilmington, Mass.) with cardiac transmitting devices (Data Sciences PhysioTel C50-PXT) into the peritoneal space, with a pressure-sensing catheter inserted into the descending aorta. Rats are allowed at least one week to recover. Rats were housed in individual cages and maintained in a humidity-controlled (30-70%) and temperature-controlled (20-22° C.) facility on a 12 h:12 h light/dark cycle (lights on at 7:00 am) with free access to food (Harlan-Teklad, Orange, Calif., Rodent Diet 8604) and water. Rats were allowed one week of habituation to the animal facility before testing.
The implanted transmitting devices transmitted continuous measurements of blood pressure (systolic, diastolic, mean arterial, pulse), heart rate, body temperature, and motor activity in freely moving conscious animals. […] Telemetry recording occurred over a 21-h period, starting at noon and continuing until 9:00 am the following day. […]
By way of illustration and not limitation, the rats were administered vehicle (PEG 400) and (R)-2-(7-(4-cyclopentyl-3-(trifluoromethyl)benzyloxy)-1,2,3,4-tetrahydrocyclopenta[b]indol-3-yl)acetic acid and heart rate was then measured over a 120 min period.

Female Lewis rats = assay: Collagen-induced arthritis rat model; format: in vivo; details: 0.3, 1 and 3 mg/kg p.o., q.d., day 0 to day 16; FIG. 3
Method: Female Lewis rats were used in this study. Acclimated animals were anesthetized with isoflurane and given the first collagen injection (day 0). On day 6, they were anesthetized again for the second collagen injection. Collagen was prepared by making a 4 mg/mL solution in 0.01 N acetic acid. Equal volumes of collagen and incomplete Freund's adjuvant were emulsified by hand mixing until a bead of this material held its form when placed in water. Each animal received 300 μL of the mixture each time, spread over 3 subcutaneous sites on the back. Treatment (p.o., q.d., 5 mL/kg dosing volume) began on day 0 and continued through day 16 with vehicle or compounds given at 24 h intervals. Rats were weighed on days 0, 3, 6 and 9 through 17 and caliper measurements of the ankles taken on days 9 through 17.

Chain of S1P1 receptor (P21453 whole entry): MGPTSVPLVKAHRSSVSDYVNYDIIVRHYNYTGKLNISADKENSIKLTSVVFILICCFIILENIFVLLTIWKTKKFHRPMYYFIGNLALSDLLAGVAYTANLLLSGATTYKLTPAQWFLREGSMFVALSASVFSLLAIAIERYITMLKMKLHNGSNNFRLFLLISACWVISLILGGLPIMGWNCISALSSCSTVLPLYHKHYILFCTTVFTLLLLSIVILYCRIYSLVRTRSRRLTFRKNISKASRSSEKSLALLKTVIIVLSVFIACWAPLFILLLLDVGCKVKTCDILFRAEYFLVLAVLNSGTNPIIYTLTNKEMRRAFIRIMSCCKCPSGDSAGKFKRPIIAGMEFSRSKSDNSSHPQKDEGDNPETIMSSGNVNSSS

With O=C(O)C[C@H]1CCc2c1[nH]c1ccc(OCc3ccc(C4CCCC4)c(C(F)(F)F)c3)cc21 [(R)-2-(7-(4-cyclopentyl-3-(trifluoromethyl)benzyloxy)-1,2,3,4-tetrahydrocyclopenta[b]indol-3-yl)acetic acid] the “peripheral blood lymphocyte (PBL) count lowering vs vehicle” value (Male BALB/c mice) was “exhibited activity for inducing PBL lowering (lymphopenia)”, the “S1P1 receptor agonism (decrease of cAMP concentration)” value (S1P1 receptor) was “agonist of the S1P1 receptor” and the “peripheral blood lymphocyte (PBL) count lowering vs vehicle” value (Male Sprague-Dawley rats [1]) was “exhibited activity for inducing PBL lowering (lymphopenia)”. For the same compound, the “reduction of severity of disease symptoms (clinical score) in EAE” value (Female C57BL/6 mice) was “exhibited activity in the mouse EAE assay”, the “reduction of heart rate (bradycardia) vs vehicle” value (Male Sprague-Dawley rats [2]) was “no or substantially no reduction of heart rate” and the “reduction of mean ankle diameter” value (Female Lewis rats) was “exhibited activity for reducing mean ankle diameter”.
